Assay results taken from publication PMC10258805, “Nonpeptidic Oxazole-Based Prolyl Oligopeptidase Ligands with Disease-Modifying Effects on α-Synuclein Mouse Models of Parkinson’s Disease” (Journal of Medicinal Chemistry, 2023).
Where two headings read alike, the source gives them in different places.

Assays:
recombinant porcine PREP = molecular target: T1, recombinant porcine PREP (Sus scrofa, UniProt P23687); test: PREP activity assay (inhibition of proteolytic activity); assay type: biochemical
T1 construct: made in house

[1] = system: HEK-293 cells stably expressing GFP-LC3B; test: Autophagic flux (GFP-LC3B reporter cells); conditions: for activity at 10 µM: Homo sapiens, HEK293, 24 h
[2] = system: ROS production in SH-SY5Y cells; test: ROS detection assay under oxidative stress; conditions: Homo sapiens, 3 h
[3] = system: αSyn dimerization in Neuro2A (N2A) cells; test: αSyn-dimerization assay (split Gaussia luciferase PCA); conditions: for activity at 10 µM: Mus musculus, N2a
[4] = molecular target: T2, PREP in mouse brain homogenate (Mus musculus, UniProt Q9QUR6); test: PREP inhibition measured with mouse brain homogenate; assay type: biochemical
T2 construct: from tissue; host or cells: mouse brain homogenate

[5] = Stability studies (NMR, MS, polarimetry, long-term monitoring); conditions: NMR samples in solution, 2-4 days at room temperature; UPLC-MS two or more weeks after isolation
[6] = supplementary CSV, read-out: IC50
[7] = read-out: Autophagy at 10 uM (%)
[8] = read-out: autophagy at 10 μM (%)
[9] = read-out: ROS production, % of the control
[10] = read-out: aSyn dimerization at 10 uM (%)
[11] = read-out: αSyn dimer. at 10 μM (%)
[12] = Suc-Gly-Pro-AMC as substrate, 95% CI in brackets, read-out: IC50 (nM) (95% CI)
[13] = read-out: luminescence signal compared to the DMSO control (αSyn dimerization)
[14] = read-out: GFP signal of the DMSO control (autophagic flux)

T1 sequence (P23687 whole entry): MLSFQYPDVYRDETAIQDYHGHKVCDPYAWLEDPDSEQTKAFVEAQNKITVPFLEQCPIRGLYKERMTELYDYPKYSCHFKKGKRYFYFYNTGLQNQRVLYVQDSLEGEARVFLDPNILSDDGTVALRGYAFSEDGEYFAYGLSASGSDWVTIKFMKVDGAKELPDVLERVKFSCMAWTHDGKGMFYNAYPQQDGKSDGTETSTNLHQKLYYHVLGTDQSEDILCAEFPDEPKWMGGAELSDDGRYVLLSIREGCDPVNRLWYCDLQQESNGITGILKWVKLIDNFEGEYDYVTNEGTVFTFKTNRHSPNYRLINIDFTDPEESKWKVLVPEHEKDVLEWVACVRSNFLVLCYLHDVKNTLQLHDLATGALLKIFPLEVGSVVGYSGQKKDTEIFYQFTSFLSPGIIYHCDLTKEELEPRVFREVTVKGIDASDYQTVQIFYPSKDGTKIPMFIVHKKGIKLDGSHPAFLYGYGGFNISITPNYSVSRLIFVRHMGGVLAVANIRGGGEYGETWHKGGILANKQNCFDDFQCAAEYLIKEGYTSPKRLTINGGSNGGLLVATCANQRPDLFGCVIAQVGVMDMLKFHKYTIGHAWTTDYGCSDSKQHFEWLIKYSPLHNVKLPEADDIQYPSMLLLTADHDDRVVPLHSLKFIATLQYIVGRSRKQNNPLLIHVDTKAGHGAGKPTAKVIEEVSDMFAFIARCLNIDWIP
T2 sequence (Q9QUR6 whole entry): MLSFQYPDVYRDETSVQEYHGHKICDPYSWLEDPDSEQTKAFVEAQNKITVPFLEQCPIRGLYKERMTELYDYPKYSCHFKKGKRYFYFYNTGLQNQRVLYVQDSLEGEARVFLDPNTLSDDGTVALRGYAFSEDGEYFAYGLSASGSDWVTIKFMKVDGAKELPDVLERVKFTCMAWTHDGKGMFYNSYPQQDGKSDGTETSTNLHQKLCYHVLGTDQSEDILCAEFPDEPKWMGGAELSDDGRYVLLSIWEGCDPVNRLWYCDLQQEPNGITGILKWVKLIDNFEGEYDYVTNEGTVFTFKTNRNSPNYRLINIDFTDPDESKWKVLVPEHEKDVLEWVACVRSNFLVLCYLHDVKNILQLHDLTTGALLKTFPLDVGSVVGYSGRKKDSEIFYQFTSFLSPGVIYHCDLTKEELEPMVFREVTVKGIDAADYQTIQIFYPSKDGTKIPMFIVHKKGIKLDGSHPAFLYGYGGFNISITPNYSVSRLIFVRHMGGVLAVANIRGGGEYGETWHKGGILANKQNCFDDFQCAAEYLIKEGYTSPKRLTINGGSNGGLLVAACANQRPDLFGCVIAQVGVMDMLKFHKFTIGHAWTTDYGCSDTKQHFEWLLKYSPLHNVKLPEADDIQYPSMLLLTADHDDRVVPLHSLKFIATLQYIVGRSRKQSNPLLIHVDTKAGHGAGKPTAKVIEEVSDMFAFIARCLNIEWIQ

Compound | inhibitory activity (in words) (recombinant porcine PREP) | IC50 (recombinant porcine PREP; [6]) [nM] | activity at 10 µM [1, 7] [%] | activity at 10 µM [1, 8] [%] | activity at 10 µM ([2]; read-out: ROS at 10 uM (%)) [%] | activity at 10 µM ([2]; read-out: ROS at 10 μM (%)) [%] | activity at 10 µM [2, 9] [%] | activity at 10 µM [3, 10] [%] | activity at 10 µM [3, 11] [%] | IC50 (recombinant porcine PREP; [12]) [nM] | activity at 10 µM [3, 13] [%] | activity at 10 µM [1, 14] [%] | GFP signal compared to the DMSO control (in words) ([1]; 10 μM, one-way ANOVA with Dunnett's post-test) | effect on αSyn dimerization (in words) ([3]; 10 μM, N2A cells) | inhibitory activity (in words) ([4]; Table 2: mouse brain homogenate) | IC50 ([4]; measured with mouse brain homogenate, read-out: IC50 (nM) (95% CI)) | long-term stability (in words) [5]
N#C[C@@H]1CCCN1c1oc(CCCc2ccccc2)nc1C(=O)C(F)(F)F [compound 12, (S)-1-(2-(3-Phenylpropyl)-4-(2,2,2-trifluoroacetyl)oxazol-5-yl)pyrrolidine-2-carbonitrile] | strongly reduced inhibitory activity | 209000 | 98 | 98 ± 2 | 81 | 81 ± 10 | < 88 | 104 | 104 ± 5 |  |  |  |  |  |  |  | 
Cc1nc(-c2ccccc2)oc1N1CCC[C@H]1C#N [compound 13, (S)-1-(4-Methyl-2-phenyloxazol-5-yl)pyrrolidine-2-carbonitrile] |  |  | 92 | 92 ± 1 | 86 | 86 ± 13 | < 88 | 80 | 80 ± 9 | 7940 | 80 to 85 |  |  |  |  |  | 
Cc1nc(Cc2ccccc2)oc1N1CCC[C@H]1C#N [compound 14, (S)-1-(2-Benzyl-4-methyloxazol-5-yl)pyrrolidine-2-carbonitrile] |  |  | 97 | 97 ± 6 | 84 | 84 ± 4 | < 88 | 99 | 99 ± 8 | 288 |  |  |  |  |  |  | 
Cc1nc(CCc2ccccc2)oc1N1CCC[C@H]1C#N [compound 15, (S)-1-(4-Methyl-2-phenethyloxazol-5-yl)pyrrolidine-2-carbonitrile] |  |  | 88 | 88 ± 4 | 89 | 89 ± 1 |  | 75 | 75 ± 4 | 692 | ≤ 75 | ≤ 88 |  |  |  |  | 
Cc1nc(CCOc2ccccc2)oc1N1CCC[C@H]1C#N [compound 17, (S)-1-(4-Methyl-2-(2-phenoxyethyl)oxazol-5-yl)pyrrolidine-2-carbonitrile] |  |  | 94 | 94 ± 6 | 70 | 70 ± 8 | 70 | 120 | 120 ± 8 | 1160 |  |  |  |  |  |  | 
COc1ccc(CCCc2nc(C)c(N3CCC[C@H]3C#N)o2)cc1 [compound 18, (S)-1-(2-(3-(4-Methoxyphenyl)propyl)-4-methyloxazol-5-yl)pyrrolidine-2-carbonitrile] |  |  | 98 | 98 ± 1 | 86 | 86 ± 6 | < 88 | 100 | 100 ± 5 | 65 |  |  |  |  |  |  | 
COc1ccc(CCCc2nc(C)c(N3CCC[C@H]3C#N)o2)cc1OC [compound 19, (S)-1-(2-(3-(3,4-Dimethoxyphenyl)propyl)-4-methyloxazol-5-yl)pyrrolidine-2-carbonitrile] |  |  | 93 | 93 ± 2 | 70 | 70 ± 9 | 70 | 98 | 98 ± 17 | 115 |  |  |  |  |  |  | 
COc1cc(CCc2nc(C)c(N3CCC[C@H]3C#N)o2)cc(OC)c1 [compound 20, (S)-1-(2-(3,5-Dimethoxyphenethyl)-4-methyloxazol-5-yl)pyrrolidine-2-carbonitrile] |  |  | 89 | 89 ± 6 | 76 | 76 ± 8 | < 88 | 100 | 100 ± 9 | 1290 |  |  |  |  |  |  | 
Cc1nc(CCCc2cccs2)oc1N1CCC[C@H]1C#N [compound 21, (S)-1-(4-Methyl-2-(3-(2-thienyl)propyl)oxazol-5-yl)pyrrolidine-2-carbonitrile] |  |  | 72 | 72 ± 3 | 91 | 91 ± 6 |  | 101 | 101 ± 8 | 18 |  | ≤ 88 | significantly decreased the signal |  |  |  | 
Cc1nc(CCc2c[nH]c3ccccc23)oc1N1CCC[C@H]1C#N [compound 22, (S)-1-(2-(2-(1H-Indol-3-yl)ethyl)-4-methyloxazol-5-yl)pyrrolidine-2-carbonitrile] |  |  | 97 | 97 ± 3 | 82 | 82 ± 11 | < 88 | 72 | 72 ± 2 | 890 | ≤ 75 |  |  |  |  |  | 
Cc1nc(CCc2cn(C(=O)C(F)(F)F)c3ccccc23)oc1N1CCC[C@H]1C#N [compound 23, (S)-1-(4-Methyl-2-(2-(1-(2,2,2-trifluoroacetyl)-1H-indol-3-yl)ethyl)oxazol-5-yl)pyrrolidine-2-carbonitrile] |  |  | 94 | 94 ± 3 | 84 | 84 ± 7 | < 88 | 87 | 87 ± 11 | 120 |  |  |  | comparable effect as KYP-2047 |  |  | 
Cc1nc(CCC(=O)N2CCCCCC2)oc1N1CCC[C@H]1C#N [compound 24, (S)-1-(2-(3-(Azepan-1-yl)-3-oxopropyl)-4-methyloxazol-5-yl)pyrrolidine-2-carbonitrile] |  |  | 84 | 84 ± 5 | 90 | 90 ± 5 |  | 117 | 117 ± 9 | 654 |  | ≤ 88 |  |  |  |  | 
Cc1nc(C(=O)CCc2ccccc2)oc1N1CCCC1 [compound 25, 1-(4-Methyl-5-(pyrrolidin-1-yl)oxazol-2-yl)-3-phenylpropan-1-one] |  |  | 95 | 95 ± 10 | 105 | 105 ± 8 |  | 110 | 110 ± 6 |  |  |  |  |  | very weak inhibitor | 90000 | 
N#Cc1nc(CCCc2ccccc2)oc1N1CCC[C@H]1C#N [compound 28, (S)-5-(2-Cyanopyrrolidin-1-yl)-2-(3-phenylpropyl)oxazole-4-carbonitrile] | very weak inhibitors | 76600 | 97 | 97 ± 5 | 93 | 93 ± 11 |  | 109 | 109 ± 5 |  |  |  |  |  |  |  | 
c1ccc(CCCc2ncc(-c3ccccc3)o2)cc1 [compound 29, 5-Phenyl-2-(3-phenylpropyl)oxazole] | strongly reduced inhibitory activities | 91600 | 90 | 90 ± 4 | 93 | 93 ± 11 |  | 90 | 90 ± 6 |  |  |  |  |  |  |  | 
c1ccc(CCCc2ncc(-c3cccs3)o2)cc1 [compound 30, 2-(3-Phenylpropyl)-5-(2-thienyl)oxazole] | strongly reduced inhibitory activities | 37300 | 98 | 98 ± 10 | 96 | 96 ± 9 |  | 86 | 86 ± 8 |  | 80 to 85 |  |  |  |  |  | 
Cc1oc(CCCc2ccccc2)nc1C(=O)N1CCC[C@H]1C#N [compound 33, (S)-1-(5-Methyl-2-(3-phenylpropyl)oxazole-4-carbonyl)pyrrolidine-2-carbonitrile] | very low inhibitory activities | 12900 | 97 | 97 ± 5 | 98 | 98 ± 6 |  | 109 | 109 ± 6 |  |  |  |  |  |  |  | 
Cc1nc(CCCc2ccccn2)oc1N1CCCC1C#N (stereo not shown) [compound 69] |  |  |  |  |  |  |  |  |  |  |  |  |  |  |  |  | lowered the stability
Cc1nc(CCc2cccnc2)oc1N1CCCC1C#N (stereo not shown) [compound 70] |  |  |  |  |  |  |  |  |  |  |  |  |  |  |  |  | lowered the stability
